The text below walks through data of patent US20070275968A1, “Substituted Biphenyl Derivative” (priority 2004, published 2007).

Structures are written as SMILES.

By melting point is commonly meant the temperature of the solid-liquid transition.

In turn, `Cc1cccc(-c2n[nH]cc2-c2ccc(F)c(-c3ccc(C(C)O)cn3)c2)n1` (stereo not drawn) [Example 165, 1-(6-{2-Fluoro-5-[3-(6-methylpyridin-2-yl)-1H-pyrazol-4-yl]phenyl}pyridin-3-yl)ethanol] came in with a melting point of 149 to 151 °C. `Cc1cccc(-c2n[nH]cc2-c2ccc(F)c(-c3ccc(OCCO)cn3)c2)n1` [Example 166, 2-[(6-{2-Fluoro-5-[3-(6-methylpyridin-2-yl)-1H-pyrazol-4-yl]phenyl}pyridin-3-yl)oxy]ethanol] had a melting point of 148 to 151 °C. The value for `Cc1cccc(-c2n[nH]cc2-c2ccc(F)c(-c3ccc(S(=O)(=O)C(F)(F)F)cc3)c2)n1` [Example 168, 2-(4-{6-Fluoro-4′-[(trifluoromethyl)sulfonyl]-1,1′-biphenyl-3-yl}-1H-pyrazol-3-yl)-6-methylpyridine] was 81 to 84 °C; that for `Cc1cccc(-c2n[nH]cc2-c2ccc(F)c(-c3ccc(SCCO)cc3)c2)n1` [Example 169, 2-({2′-Fluoro-5′-[3-(6-methylpyridin-2-yl)-1H-pyrazol-4-yl]-1,1′-biphenyl-4-yl}thio)ethanol] was 150 to 152 °C. Take `Cc1cccc(-c2n[nH]cc2-c2ccc(F)c(-c3ccc(S(=O)(=O)CCO)cc3)c2)n1` [Example 170, 2-({2′-Fluoro-5′-[3-(6-methylpyridin-2-yl)-1H-pyrazol-4-yl]-1,1′-biphenyl-4-yl}sulfonyl)ethanol]: the melting point lay within 88 to 90 °C.

In the case of `Cc1cccc(-c2n[nH]cc2-c2ccc(F)c(-c3ccc(S(=O)(=O)C(F)F)cc3)c2)n1` [Example 171, 2-(4-{4′-[(Difluoromethyl)sulfonyl]-6-fluoro-1,1′-biphenyl-3-yl}-1H-pyrazol-3-yl)-6-methylpyridine], the melting point was 80 to 82 °C. The value for `COC(C)(C)c1ccc(-c2cc(-c3c[nH]nc3-c3cccc(C)n3)ccc2F)nc1` [Example 173, 2-{2-Fluoro-5-[3-(6-methylpyridin-2-yl)-1H-pyrazol-4-yl]phenyl}-5-(1-methoxy-1-methylethyl)pyridine] was 168 to 169 °C. For `CCC(O)(CC)c1ccc(-c2cc(-c3c[nH]nc3-c3cccc(C)n3)ccc2F)nc1` [Example 174, 3-(6-{2-Fluoro-5-[3-(6-methylpyridin-2-yl)-1H-pyrazol-4-yl]phenyl}pyridin-3-yl)pentan-3-ol], the melting point was in the range of 94 to 95 °C. `Cc1cccc(-c2n[nH]cc2-c2ccc(F)c(-c3cnn(CCN4CCOCC4)c3)c2)n1` [Example 175, 4-[2-(4-{2-Fluoro-5-[3-(6-methylpyridin-2-yl)-1H-pyrazol-4-yl]phenyl}-1H-pyrazol-1-yl)ethyl]morpholine]: the melting point was 124 °C. Take `Cc1cccc(-c2n[nH]cc2-c2ccc(F)c(-c3csc(C(C)(C)O)n3)c2)n1` [Example 178, 2-(4-{2-Fluoro-5-[3-(6-methylpyridin-2-yl)-1H-pyrazol-4-yl]phenyl}-1,3-thiazol-2-yl)propan-2-ol]: the melting point was 78 to 80 °C. For `Cc1cccc(-c2n[nH]cc2-c2ccc(F)c(-c3csc(CO)n3)c2)n1` [Example 182, (4-{2-Fluoro-5-[3-(6-methylpyridin-2-yl)-1H-pyrazol-4-yl]phenyl}-1,3-thiazol-2-yl)methanol] the value was 89 to 92 °C; for `Cc1cccc(-c2n[nH]cc2-c2ccc(F)c(-c3ncc(C(C)(C)O)cn3)c2)n1` [Example 183, 2-(2-{2-Fluoro-5-[3-(6-methylpyridin-2-yl)-1H-pyrazol-4-yl]phenyl}pyrimidin-5-yl)propan-2-ol], 162 °C.

In turn, `Cc1cccc(-c2n[nH]cc2-c2ccc(F)c(-c3cn(CCN4CCOCC4)cn3)c2)n1` [Example 185, 4-[2-(4-{2-Fluoro-5-[3-(6-methylpyridin-2-yl)-1H-pyrazol-4-yl]phenyl}-1H-imidazol-1-yl)ethyl]morpholine] yielded a melting point of 144 to 145 °C. For `Cc1cccc(-c2n[nH]cc2-c2ccc(F)c(-c3cn(CCN(C)C)cn3)c2)n1` [Example 186, 2-(4-{2-Fluoro-5-[3-(6-methylpyridin-2-yl)-1H-pyrazol-4-yl]phenyl}-1H-imidazol-1-yl)-N,N-dimethylethylamine] the value was 130 to 131 °C. For `Cc1cccc(-c2n[nH]cc2-c2ccc(F)c(-c3ccc(N4CCN(C)CC4)nc3)c2)n1` [Example 187, 1-(5-{2-Fluoro-5-[3-(6-methylpyridin-2-yl)-1H-pyrazol-4-yl]phenyl}pyridin-2-yl)-4-methylpiperazine] the value was 86 °C; for `Cc1cccc(-c2n[nH]cc2-c2ccc(F)c(-c3ccc(N4CCN(C)CC4)cn3)c2)n1` [Example 188, 1-(6-{2-Fluoro-5-[3-(6-methylpyridin-2-yl)-1H-pyrazol-4-yl]phenyl}pyridin-3-yl)-4-methylpiperazine], 97 °C.

`Cc1cccc(-c2n[nH]cc2-c2ccc(F)c(-c3ccc(S(C)(=O)=O)cc3)c2)n1` [Example 191, 2-{4-[6-Fluoro-4′-(methylsulfonyl)-1,1′-biphenyl-3-yl]-1H-pyrazol-3-yl}-6-methylpyridine] displayed a melting point of 100 to 102 °C. With `Cc1cccc(-c2n[nH]cc2-c2ccc(F)c(-c3ccc(NC(=O)NN4CCOCC4)cc3)c2)n1` [Example 192, N-{2′-Fluoro-5′-[3-(6-methylpyridin-2-yl)-1H-pyrazol-4-yl]-1,1′-biphenyl-4-yl}-N′-morpholine-4-ylurea], the melting point lay within 131 to 133 °C. In turn, `Cc1cccc(-c2n[nH]cc2-c2ccc(F)c(-c3ccc[nH]3)c2)n1` [Example 193, 2-{4-[4-Fluoro-3-(1H-pyrrol-2-yl)phenyl]-1H-pyrazol-3-yl}-6-methylpyridine] yielded a melting point of 141 to 142 °C. For `Cc1cccc(-c2n[nH]cc2-c2ccc(F)c(-c3ccc(O)cc3)c2)n1` [Example 197, 2′-Fluoro-5′-[3-(6-methylpyridin-2-yl)-1H-pyrazol-4-yl]-1,1′-biphenyl-4-ol], the melting point is 72 to 74 °C.

`Cc1cccc(-c2nn(C)cc2-c2ccc(F)c(-c3ccc(S(C)(=O)=O)cc3)c2)n1` [Example 199, 2-{4-[6-Fluoro-4′-(methylsulfonyl)-1,1′-biphenyl-3-yl]-1-methyl-1H-pyrazol-3-yl}-6-methylpyridine] gave a melting point of 66 to 67 °C. Take `Cc1cccc(-c2nn(C(C)C)cc2-c2ccc(F)c(-c3ccc(S(C)(=O)=O)cc3)c2)n1` [Example 200, 2-{4-[6-Fluoro-4′-(methylsulfonyl)-1,1′-biphenyl-3-yl]-1-isopropyl-1H-pyrazol-3-yl}-6-methylpyridine]: the melting point was 172 to 173 °C. `Cn1cc(-c2cc(-c3c[nH]nc3-c3ccccn3)ccc2F)cn1` [Example 201, 2-{4-[4-Fluoro-3-(1-methyl-1H-pyrazol-4-yl)phenyl]-1H-pyrazol-3-yl}pyridine] had a melting point of 134 to 136 °C. For `CS(=O)(=O)c1ccc(-c2cc(-c3c[nH]nc3-c3cccc(C4CC4)n3)ccc2F)cc1` [Example 203, 2-Cyclopropyl-6-{4-[6-fluoro-4′-(methylsulfonyl)-1,1′-biphenyl-3-yl]-1H-pyrazol-3-yl}pyridine] the value was 102 to 104 °C. The value for `NS(=O)(=O)c1ccc(-c2cc(-c3c[nH]nc3-c3cccc(C4CC4)n3)ccc2F)cc1` [Example 204, 5′-[3-(6-Cyclopropylpyridin-2-yl)-1H-pyrazol-4-yl]-2′-fluoro-1,1′-biphenyl-4-sulfonamide] was 225 to 226 °C; that for `Cc1cccc(-c2n[nH]cc2-c2ccc(F)c(-c3cc[nH]n3)c2)n1` [Example 205, 2-{4-[4-Fluoro-3-(1H-pyrazol-3-yl)phenyl]-1H-pyrazol-3-yl}-6-methylpyridine] was 105 to 108 °C. The value for `Cc1cccc(-c2n[nH]cc2-c2ccc(F)c(-c3c[nH]c(C(O)CO)n3)c2)n1` (stereo not drawn) [Example 207, 1-(4-{2-Fluoro-5-[3-(6-methylpyridin-2-yl)-1H-pyrazol-4-yl]phenyl}-1H-imidazol-2-yl)ethane-1,2-diol] was 125 to 127 °C; that for `Cc1cccc(-c2n[nH]cc2-c2ccc(F)c(-c3c[nH]c(CO)n3)c2)n1` [Example 208, (4-{2-Fluoro-5-[3-(6-methylpyridin-2-yl)-1H-pyrazol-4-yl]phenyl}-1H-imidazol-2-yl)methanol] was 243 to 246 °C.

Compound `Cc1cccc(-c2n[nH]cc2-c2ccc(F)c(-c3c[nH]c(CC(C)(C)O)n3)c2)n1` [Example 210, 1-(4-{2-Fluoro-5-[3-(6-methylpyridin-2-yl)-1H-pyrazol-4-yl]phenyl}-1H-imidazol-2-yl)-2-methylpropan-2-ol] showed a melting point of 136 to 140 °C. The value for `Cc1cccc(-c2n[nH]cc2-c2ccc(F)c(-c3cn4c(n3)[S+]([O-])CC4)c2)n1` (stereo not drawn) [Example 211, 6-{2-Fluoro-5-[3-(6-methylpyridin-2-yl)-1H-pyrazol-4-yl]phenyl}-2,3-dihydroimidazo[2,1-b][1,3]thiazole 1-oxide] was 140 to 144 °C. For `Cc1cccc(-c2n[nH]cc2-c2ccc(F)c(-c3c[nH]c(CCN4CCOCC4)n3)c2)n1` [Example 213, 4-[2-(4-{2-Fluoro-5-[3-(6-methylpyridin-2-yl)-1H-pyrazol-4-yl]phenyl}-1H-imidazol-2-yl)ethyl]morpholine] the value was 239 to 240 °C; for `Cc1cccc(-c2nc(N)sc2-c2ccc(F)c(-c3ccc(S(C)(=O)=O)cc3)c2)n1` [Example 215, 5-[6-Fluoro-4′-(methylsulfonyl)-1,1′-biphenyl-3-yl]-4-(6-methylpyridin-2-yl)-1,3-thiazol-2-amine], 202 to 204 °C. The value for `Cc1cccc(-c2nc(N)sc2-c2ccc(F)c(-c3ccc(S(N)(=O)=O)cc3)c2)n1` [Example 216, 5′-[2-Amino-4-(6-methylpyridin-2-yl)-1,3-thiazol-5-yl]-2′-fluoro-1,1′-biphenyl-4-sulfonamide] was 190 to 192 °C.
